Results: patent US20240043404A1 (AbbVie Inc., priority 2009, published 2024)
Read-outs that look alike come from different tables or passages of the source.

Test system: RS4;11 cells
Experiment: RS4;11 cell viability assay (CellTiter Glo);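 note: acute lymphoblastic leukemia line RS4,11, EC50 derived from percentage of viable cells after treatment relative to untreated controls, cell killing taken as a measure of Bcl-2 inhibition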
Format: cell-based, human
Conditions: Homo sapiens, read-out: RS4
[1] = RS4-11, 48 h, 50,000 cells per well, 10% human serum, 48 hours, 11 EC50 Values
[2] = RS4-11, Table 5, direct comparison Z=N with corresponding analogs Z=C, 11 EC50

Method: The acute lymphoblastic leukemia (ALL) cell line RS4;11 was used as the primary human cell line to assess the cellular activity of Bcl-2 selective agents in vitro and their efficacy in vivo.
Cell cytotoxicity EC50 values were assessed using CellTiter Glo (Promega) according to the manufacturer's recommendations. The EC50 values were determined as a percentage of viable cells following treatment compared to the untreated control cells.

SMILES | EC50 [1] | EC50 (RS4-11, Table 4, selected compounds in U.S. Pat. Application No. 12/631404, 11 EC50) | EC50 [2]
CC1(C)CCC(CN2CCN(c3ccc(C(=O)NS(=O)(=O)c4ccc(NCC5CCOCC5)c(S(F)(F)(F)(F)F)c4)c(Oc4cnc5[nH]ccc5c4)c3)CC2)=C(c2ccc(Cl)cc2)C1 [Example 233, 4-(4-{[2-(4-chlorophenyl)-4,4-dimethylcyclohex-1-en-1-yl]methyl}piperazin-1-yl)-N-({3-(pentafluoro-lambda˜6˜-sulfanyl)-4-[(tetrahydro-2H-pyran-4-ylmethyl)amino]phenyl}sulfonyl)-2-(1H-pyrrolo[2,3-b]pyridin-5-yloxy)benzamide] | > 1000 nM |  | 
CC1(C)CCC(CN2CCN(c3ccc(C(=O)NS(=O)(=O)c4cc(F)c(OCC5(F)CCOCC5)c(F)c4)c(Oc4cnc5[nH]ccc5c4)c3)CC2)=C(c2ccc(Cl)cc2)C1 [Example 310, 4-(4-{[2-(4-chlorophenyl)-4,4-dimethylcyclohex-1-en-1-yl]methyl}piperazin-1-yl)-N-({3,5-difluoro-4-[(4-fluorotetrahydro-2H-pyran-4-yl)methoxy]phenyl}sulfonyl)-2-(1H-pyrrolo[2,3-b]pyridin-5-yloxy)benzamide] | > 1000 nM |  | 
CC1(C)CCC(CN2CCN(c3ccc(C(=O)NS(=O)(=O)c4cnc(NCC5(F)CCOCC5)c(Cl)c4)c(Oc4cnc5[nH]ccc5c4)c3)CC2)=C(c2ccc(Cl)cc2)C1 [Example 242, N-[(5-chloro-6-{[(4-fluorotetrahydro-2H-pyran-4-yl)methyl]amino}pyridin-3-yl)sulfonyl]-4-(4-{[2-(4-chlorophenyl)-4,4-dimethylcyclohex-1-en-1-yl]methyl}piperazin-1-yl)-2-(1H-pyrrolo[2,3-b]pyridin-5-yloxy)benzamide] | 223 nM |  | 
CC1(C)CCC(CN2CCN(c3ccc(C(=O)NS(=O)(=O)c4ccc(NCc5cccc(OC(F)F)c5)c([N+](=O)[O-])c4)c(Oc4cnc5[nH]ccc5c4)c3)CC2)=C(c2ccc(Cl)cc2)C1 [Example 187, 4-(4-{[2-(4-chlorophenyl)-4,4-dimethylcyclohex-1-en-1-yl]methyl}piperazin-1-yl)-N-[(4-{[3-(difluoromethoxy)benzyl]amino}-3-nitrophenyl)sulfonyl]-2-(1H-pyrrolo[2,3-b]pyridin-5-yloxy)benzamide] | 215 nM |  | 
COCCNc1ccc(S(=O)(=O)NC(=O)c2ccc(N3CCN(CC4=C(c5ccc(Cl)cc5)CC(C)(C)CC4)CC3)cc2Oc2ccc3[nH]ccc3c2)cc1[N+](=O)[O-] [Example 20, 4-(4-{[2-(4-chlorophenyl)-4,4-dimethylcyclohex-1-en-1-yl]methyl}piperazin-1-yl)-2-(1H-indol-5-yloxy)-N-({4-[(2-methoxyethyl)amino]-3-nitrophenyl}sulfonyl)benzamide] | 191 nM | 191 nM | 191 nM
COc1cccc(CNc2ccc(S(=O)(=O)NC(=O)c3ccc(N4CCN(CC5=C(c6ccc(Cl)cc6)CC(C)(C)CC5)CC4)cc3Oc3cnc4[nH]ccc4c3)cc2[N+](=O)[O-])c1 [Example 176, 4-(4-{[2-(4-chlorophenyl)-4,4-dimethylcyclohex-1-en-1-yl]methyl}piperazin-1-yl)-N-({4-[(3-methoxybenzyl)amino]-3-nitrophenyl}sulfonyl)-2-(1H-pyrrolo[2,3-b]pyridin-5-yloxy)benzamide] | 134 nM |  | 
CCN(C)C(=O)N1CCOC(CNc2ccc(S(=O)(=O)NC(=O)c3ccc(N4CCN(CC5=C(c6ccc(Cl)cc6)CC(C)(C)CC5)CC4)cc3Oc3cnc4[nH]ccc4c3)cc2Cl)C1 (centres unmarked) [Example 333, 2-{[(2-chloro-4-{[4-(4-{[2-(4-chlorophenyl)-4,4-dimethylcyclohex-1-en-1-yl]methyl}piperazin-1-yl)-2-(1H-pyrrolo[2,3-b]pyridin-5-yloxy)benzoyl]sulfamoyl}phenyl)amino]methyl}-N-ethyl-N-methylmorpholine-4-carboxamide] | 463 nM |  | 
CC1(C)CCC(CN2CCN(c3ccc(C(=O)NS(=O)(=O)c4cnc(OCC5(F)CCOCC5)c(C(F)(F)F)c4)c(Oc4cnc5[nH]ccc5c4)c3)CC2)=C(c2ccc(Cl)cc2)C1 [Example 208, 4-(4-{[2-(4-chlorophenyl)-4,4-dimethylcyclohex-1-en-1-yl]methyl}piperazin-1-yl)-N-{[6-[(4-fluorotetrahydro-2H-pyran-4-yl)methoxy]-5-(trifluoromethyl)pyridin-3-yl]sulfonyl}-2-(1H-pyrrolo[2,3-b]pyridin-5-yloxy)benzamide] | 121 nM |  | 
COC1(C)CCC(c2ccc(Cl)cc2)=C(CN2CCN(c3ccc(C(=O)NS(=O)(=O)c4ccc(NCC5CCOCC5)c([N+](=O)[O-])c4)c(Oc4cnc5[nH]ccc5c4)c3)CC2)C1 (centres unmarked) [Example 378, 4-(4-{[2-(4-chlorophenyl)-5-methoxy-5-methylcyclohex-1-en-1-yl]methyl}piperazin-1-yl)-N-({3-nitro-4-[(tetrahydro-2H-pyran-4-ylmethyl)amino]phenyl}sulfonyl)-2-(1H-pyrrolo[2,3-b]pyridin-5-yloxy)benzamide] | 6.76 nM |  | 
CC1(C)CCC(CN2CCN(c3ccc(C(=O)NS(=O)(=O)c4ccc(OCC5(F)CCN(C6COC6)CC5)c([N+](=O)[O-])c4)c(Oc4cnc5[nH]ccc5c4)c3)CC2)=C(c2ccc(Cl)cc2)C1 [Example 167, 4-(4-{[2-(4-chlorophenyl)-4,4-dimethylcyclohex-1-en-1-yl]methyl}piperazin-1-yl)-N-({4-[(4-fluoro-1-oxetan-3-ylpiperidin-4-yl)methoxy]-3-nitrophenyl}sulfonyl)-2-(1H-pyrrolo[2,3-b]pyridin-5-yloxy)benzamide] | 0.93 nM |  | 
CN1CCC(COc2ccc(S(=O)(=O)NC(=O)c3ccc(N4CCN(CC5=C(c6ccc(Cl)cc6)CC(C)(C)CC5)CC4)cc3Oc3cnc4[nH]ccc4c3)cc2[N+](=O)[O-])CC1 [Example 48, 4-(4-{[2-(4-chlorophenyl)-4,4-dimethylcyclohex-1-en-1-yl]methyl}piperazin-1-yl)-N-({4-[(1-methylpiperidin-4-yl)methoxy]-3-nitrophenyl}sulfonyl)-2-(1H-pyrrolo[2,3-b]pyridin-5-yloxy)benzamide] | 3.33 nM |  | 
CN1CCC[C@H]1C(=O)N1CCC(COc2ccc(S(=O)(=O)NC(=O)c3ccc(N4CCN(CC5=C(c6ccc(Cl)cc6)CC(C)(C)CC5)CC4)cc3Oc3cnc4[nH]ccc4c3)cc2Cl)CC1 [Example 312, N-[(3-chloro-4-{[1-(1-methyl-L-prolyl)piperidin-4-yl]methoxy}phenyl)sulfonyl]-4-(4-{[2-(4-chlorophenyl)-4,4-dimethylcyclohex-1-en-1-yl]methyl}piperazin-1-yl)-2-(1H-pyrrolo[2,3-b]pyridin-5-yloxy)benzamide] | 16.2 nM |  | 
CCN(C)C(=O)N1CCOC(CNc2ncc(S(=O)(=O)NC(=O)c3ccc(N4CCN(CC5=C(c6ccc(Cl)cc6)CC(C)(C)CC5)CC4)cc3Oc3cnc4[nH]ccc4c3)cc2Cl)C1 (centres unmarked) [Example 336, 2-{[(3-chloro-5-{[4-(4-{[2-(4-chlorophenyl)-4,4-dimethylcyclohex-1-en-1-yl]methyl}piperazin-1-yl)-2-(1H-pyrrolo[2,3-b]pyridin-5-yloxy)benzoyl]sulfamoyl}pyridin-2-yl)amino]methyl}-N-ethyl-N-methylmorpholine-4-carboxamide] | 351 nM |  | 
CC1(C)CCC(CN2CCN(c3ccc(C(=O)NS(=O)(=O)c4ccc(NCC5CCOCC5)c(C#N)c4)c(Oc4cnc5[nH]ccc5c4)c3)CC2)=C(c2ccc(Cl)cc2)C1 [Example 110, 4-(4-{[2-(4-chlorophenyl)-4,4-dimethylcyclohex-1-en-1-yl]methyl}piperazin-1-yl)-N-({3-cyano-4-[(tetrahydro-2H-pyran-4-ylmethyl)amino]phenyl}sulfonyl)-2-(1H-pyrrolo[2,3-b]pyridin-5-yloxy)benzamide] | 536 nM |  | 
CC1(C)CCC(CN2CCN(c3ccc(C(=O)NS(=O)(=O)c4ccc(OCC5(F)CCOCC5)nc4)c(Oc4cnc5[nH]ccc5c4)c3)CC2)=C(c2ccc(Cl)cc2)C1 [Example 251, 4-(4-{[2-(4-chlorophenyl)-4,4-dimethylcyclohex-1-en-1-yl]methyl}piperazin-1-yl)-N-({6-[(4-fluorotetrahydro-2H-pyran-4-yl)methoxy]pyridin-3-yl}sulfonyl)-2-(1H-pyrrolo[2,3-b]pyridin-5-yloxy)benzamide] | 918 nM |  | 
CC1(C)CCC(CN2CCN(c3ccc(C(=O)NS(=O)(=O)c4ccc(NCC5CNCCO5)c([N+](=O)[O-])c4)c(Oc4cnc5[nH]ccc5c4)c3)CC2)=C(c2ccc(Cl)cc2)C1 (centres unmarked) [Example 113, 4-(4-{[2-(4-chlorophenyl)-4,4-dimethylcyclohex-1-en-1-yl]methyl}piperazin-1-yl)-N-({4-[(morpholin-2-ylmethyl)amino]-3-nitrophenyl}sulfonyl)-2-(1H-pyrrolo[2,3-b]pyridin-5-yloxy)benzamide] | 1.36 nM |  | 
CC1(C)CCC(CN2CCN(c3ccc(C(=O)NS(=O)(=O)c4ccc(OCC5(F)CCN(C6COC6)CC5)c(C#N)c4)c(Oc4cnc5[nH]ccc5c4)c3)CC2)=C(c2ccc(Cl)cc2)C1 [Example 357, 4-(4-{[2-(4-chlorophenyl)-4,4-dimethylcyclohex-1-en-1-yl]methyl}piperazin-1-yl)-N-[(3-cyano-4-{[4-fluoro-1-(oxetan-3-yl)piperidin-4-yl]methoxy}phenyl)sulfonyl]-2-(1H-pyrrolo[2,3-b]pyridin-5-yloxy)benzamide] | 13.2 nM |  | 
CC1(C)CCC(CN2CCN(c3ccc(C(=O)NS(=O)(=O)c4ccc(NCC5CCOCC5)c([N+](=O)[O-])c4)c(Oc4cnc5[nH]ccc5c4)c3)CC2)=C(c2ccc(Cl)cc2)C1 [Example 5, 4-(4-{[2-(4-chlorophenyl)-4,4-dimethylcyclohex-1-en-1-yl]methyl}piperazin-1-yl)-N-({3-nitro-4-[(tetrahydro-2H-pyran-4-ylmethyl)amino]phenyl}sulfonyl)-2-(1H-pyrrolo[2,3-b]pyridin-5-yloxy)benzamide] | 12.4 nM |  | 12 nM
CN1CCN(Nc2ccc(S(=O)(=O)NC(=O)c3ccc(N4CCN(CC5=C(c6ccc(Cl)cc6)CC(C)(C)CC5)CC4)cc3Oc3cnc4[nH]ccc4c3)cc2[N+](=O)[O-])CC1 [Example 6, 4-(4-{[2-(4-chlorophenyl)-4,4-dimethylcyclohex-1-en-1-yl]methyl}piperazin-1-yl)-N-({4-[(4-methylpiperazin-1-yl)amino]-3-nitrophenyl}sulfonyl)-2-(1H-pyrrolo[2,3-b]pyridin-5-yloxy)benzamide] | 34.9 nM |  | 35 nM
